In patent publication US7541339B2, “Par-2-activating peptide derivative and pharmaceutical composition using the same” (The University of Edinburgh, priority 2002, dated 2009) one finds EC50 data, which are given here for four molecules.

In general, EC50 refers to the midpoint of the concentration-response curve.

The target of this test is T1, human PAR-2 (Homo sapiens, UniProt P55085).
T1 construct: Human colorectal adenocarcinoma cell line, HCT-15, expressing endogenous PAR-2 at high levels; endogenous in cells; host or cells: HCT-15 (human colorectal adenocarcinoma)
T1 sequence (P55085 26-397): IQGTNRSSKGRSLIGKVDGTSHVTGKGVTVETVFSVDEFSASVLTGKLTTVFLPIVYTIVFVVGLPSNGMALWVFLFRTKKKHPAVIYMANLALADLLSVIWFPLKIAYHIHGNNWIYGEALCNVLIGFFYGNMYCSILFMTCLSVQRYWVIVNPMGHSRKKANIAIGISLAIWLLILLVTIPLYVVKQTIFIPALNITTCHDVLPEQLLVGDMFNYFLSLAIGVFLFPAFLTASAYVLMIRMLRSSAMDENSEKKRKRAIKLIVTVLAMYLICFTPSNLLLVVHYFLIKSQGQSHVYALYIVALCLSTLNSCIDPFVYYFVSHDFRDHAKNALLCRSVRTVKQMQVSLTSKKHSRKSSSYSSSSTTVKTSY
Description: PAR-2 activation potency: intracellular calcium mobilization assay (modified Hawthorne's method) in HCT-15 cells. Type of test: cell-based. An excerpt: PAR-2 activation with the peptide derivative represented by the general formula (I) in accordance with the invention can be tested by various known methods. For example, the Hollenberg's method (Hollenberg, M. D., et al., Can. J. Physiol. Pharmacol., 75, 832-841 (1997)), the Kawabata's method (Kawabata, A., et al., J. Pharmacol. Exp. Ther., 288, 358-370 (1999)) and the Hawthorne's method (Howthorne et al., A High-Throughput Microtiter Plate-Based Calcium Assay for the Study of Protease-Activated Receptor 2 Activation, Analytical Biochemistry 290, 378-379 (2001)) may be used for the test.
The inventors tested the PAR-2 activation potency according to the modified Hawthorne's method. In brief, that is the assay of the calcium mobilization in cells endogenously expressing human PAR-2. In this assay, cells were loaded with Fluorescent Ca2+ indicator dye in presence of Probenecid, an inhibitor of anion exchange transporter, and stimulated with agonists. The agonist-mediated intracellular calcium mobilization was measured using multiwell plate reader.
Human colorectal adenocarcinoma cell line, HCT-15, expressing endogenous PAR-2 at high levels were seeded in 96-well black wall clear bottom plates and subconfluent cells were loaded with Fluorescent Ca2+ indicator dye (Calcium Plus Assay Reagent, Molecular Devices) in serum free medium (RPMI) containing 2.5 mM Probenecid and incubated for 1 hr at 37 C. Then cells were stimulated with various concentrations of test compounds and fluorescent change was determined at wave length of 485 nm for excitation and 525 nm for emission (Cutoff 515 nm) using multiwell scanning fluorometer (FlexStation, Molecular Devices).
SLIGKV-OH (SEQ ID NO: 2) as a known PAR-2 activation peptide was used as a comparative compound, and the results are shown below in Table 1.
A general note: Calcium flux is commonly read through the fluorescence of an indicator in the cells.

Like-named read-outs stand apart in the source and are kept apart here. Peptide text beside a SMILES is read from it. * marks the point of attachment. 2Furoyl = O=C(c1ccco1)*

For `CC[C@H](C)[C@H](NC(=O)[C@H](CC(C)C)NC(=O)c1ccco1)C(=O)NCC(=O)N[C@@H](CCCCN)C(=O)N[C@H](C(N)=O)C(C)C` [Example 16] (2Furoyl-LIGKV-NH2; C-terminus assumed), the half-maximal effective concentration (EC50) worked out at 0.32 µM.
Still for that read-out and setting: next, `CC[C@H](C)[C@H](NC(=O)[C@H](CC(C)C)NC(=O)c1ccco1)C(=O)NCC(=O)N[C@@H](CCCCN)C(=O)N[C@H](C(=O)O)C(C)C` [Example 6] (2Furoyl-LIGKV-OH; C-terminus assumed): 1.68 µM.
In the case of “H-SLIGKV-OH [SLIGKV-OH, reference compound]”, for the setting “HCT-15 cells expressing endogenous PAR-2, fluorescent Ca2+ indicator dye, 2.5 mM Probenecid, read-out: Agonist Activity (EC50)”, the EC50 worked out at 22.8 µM.
Regarding `CC[C@H](C)[C@H](NC(=O)[C@H](CC(C)C)NC(=O)c1ccco1)C(=O)NCC(=O)N[C@@H](CCCNC(=N)N)C(=O)N[C@@H](CC(C)C)C(=O)O` [Example 18], the EC50 was 1.21 µM.
